Test results taken from patent US20090142395A1, “DEFERASIROX PHARMACEUTICAL COMPOSITIONS” (priority 2007, published 2009).

Test: Flow properties of co-milled blends, assessed visually
Format: physicochemical
Conditions: visual score between 1 and 6, where 6 is a free-flowing powder
Procedure: Flow properties were assessed visually, and given a score between 1 and 6, where 6 is a free-flowing powder.

Flow score: 1
SMILES: O=C(O)c1ccc(-n2nc(-c3ccccc3O)nc2-c2ccccc2O)cc1 [Deferasirox raw material, 4-[3,5-bis(2-hydroxyphenyl)-[1,2,4]triazol-1-yl]benzoic acid]
